Literature values, collected in US20190029235A1, “EFFICIENT, SCALABLE PATIENT-DERIVED XENOGRAFT SYSTEM BASED ON A CHICK CHORIOALLANTOIC MEMBRANE (CAM) IN VIVO MODEL” (Baylor College of Medicine, priority 2015, published 2019).

Key:
[1] = system: BCM-4013 breast cancer PDX line; settings: PDX line BCM-4013, tumor source Pre-treat Bx, mouse-based breast cancer PDX
[2] = system: BCM-2147 breast cancer PDX line; settings: PDX line BCM-2147, tumor source Pre-treat Bx, mouse-based breast cancer PDX
[3] = system: BCM-6257 breast cancer PDX line; settings: PDX line BCM-6257, tumor source Pre-treat Bx, mouse-based breast cancer PDX

| Compound | Treatment Response [1] | Treatment Response [2] | Treatment Response [3] |
| --- | --- | --- | --- |
| N.N.O=C([O-])C1(C(=O)[O-])CCC1.[Pt+2] [Carboplatin, carboplatin] | Resistant | Sensitive | Sensitive |
| COc1cccc2c1C(=O)c1c(O)c3c(c(O)c1C2=O)C[C@@](O)(C(=O)CO)C[C@@H]3O[C@H]1C[C@H](N)[C@H](O)[C@H](C)O1 [Doxorubicin, doxorubicin] | Resistant | Resistant | Resistant |
| CC(=O)O[C@@]12CO[C@@H]1C[C@H](O)[C@@]1(C)C(=O)[C@H](O)C3=C(C)[C@@H](OC(=O)[C@H](O)[C@@H](NC(=O)OC(C)(C)C)c4ccccc4)C[C@@](O)([C@@H](OC(=O)c4ccccc4)[C@H]21)C3(C)C [Docetaxel, docetaxel] | Resistant | Resistant | Sensitive |
